From the NIST ThermoML archive (doi:10.1021/acs.jced.6b00655)
Several values for one entry are separate records, joined by “and”; a condition that tells them apart may be missing. Equal entries are not always repeated.

Tests used:
[1] = xn = mol fraction of the nth substance listed; settings: 100 kPa, Liquid, Vibrating tube method
[2] = 343.15 K; 100 kPa; Liquid; Vibrating tube method

CCCC[N+]1(C)CCCC1.O=S(=O)([O-])C(F)(F)F [1-butyl-1-methylpyrrolidinium trifluoromethanesulfonate] + Cc1ccccc1C
[1], 283.15 K
Settings | mass density [kg/m3]
x2 = 0 | 1263.17
x2 = 0.054 | 1252.3
x2 = 0.107 | 1243.62
x2 = 0.19 | 1225.81
x2 = 0.308 | 1197.9
x2 = 0.399 | 1174.56
x2 = 0.451 | 1160.97

CCCC[N+]1(C)CCCC1.N#CN=C=[N-] [1-butyl-1-methylpyrrolidinium dicyanamide] + c1ccccc1
[1], 283.15 K
Settings | mass density [kg/m3]
x2 = 0 | 1021.84
x2 = 0.051 | 1020.09
x2 = 0.099 | 1018.22
x2 = 0.199 | 1014.33
x2 = 0.293 | 1009.95
x2 = 0.401 | 1004.03
x2 = 0.505 | 996.7
x2 = 0.61 | 987.41
x2 = 0.637 | 984.55
x2 = 0.665 | 981.11
x2 = 0.69 | 978.4
x2 = 0.718 | 973.87

CCCC[N+](C)(CCCC)CCCC.O=S(=O)([N-]S(=O)(=O)C(F)(F)F)C(F)(F)F [tributylmethylammonium bis((trifluoromethyl)sulfonyl)imide]
Settings | mass density
[2] | 1224.15 kg/m3 and 1224.18 kg/m3

CCCC[N+](C)(CCCC)CCCC.O=S(=O)([N-]S(=O)(=O)C(F)(F)F)C(F)(F)F [tributylmethylammonium bis((trifluoromethyl)sulfonyl)imide] + CCc1ccccc1
[1], 343.15 K
Settings | mass density [kg/m3]
x2 = 0 | 1224.15
x2 = 0.105 | 1210.81
x2 = 0.203 | 1197.48
x2 = 0.295 | 1179.85
x2 = 0.389 | 1160.38
x2 = 0.461 | 1142.53
x2 = 0.584 | 1105.8
x2 = 0.701 | 1065.88
x2 = 0.732 | 1053.69

CCCC[N+]1(C)CCCC1.O=S(=O)([O-])C(F)(F)F [1-butyl-1-methylpyrrolidinium trifluoromethanesulfonate] + Cc1ccccc1
[1], 283.15 K
Settings | mass density [kg/m3]
x2 = 0 | 1263.17
x2 = 0.052 | 1255.13
x2 = 0.102 | 1246.47
x2 = 0.221 | 1223.94
x2 = 0.313 | 1203.6
x2 = 0.4 | 1181.98
x2 = 0.516 | 1147.19
x2 = 0.579 | 1124.97

CCCC[N+]1(C)CCCC1.O=S(=O)([N-]S(=O)(=O)C(F)(F)F)C(F)(F)F + Cc1cccc(C)c1
[1], 283.15 K
Settings | mass density [kg/m3]
x2 = 0 | 1410.45
x2 = 0.206 | 1361.63
x2 = 0.372 | 1318.08
x2 = 0.491 | 1259.92
x2 = 0.616 | 1191.7

CCCC[N+]1(C)CCCC1.O=S(=O)([N-]S(=O)(=O)C(F)(F)F)C(F)(F)F + Cc1ccccc1C
[1], 283.15 K
Settings | mass density [kg/m3]
x2 = 0 | 1407.6
x2 = 0.21 | 1360.77
x2 = 0.409 | 1303.44
x2 = 0.622 | 1224.4
x2 = 0.673 | 1207.6

CCCC[N+]1(C)CCCC1.N#CN=C=[N-] [1-butyl-1-methylpyrrolidinium dicyanamide] + Cc1ccccc1C
[1], 283.15 K
Settings | mass density [kg/m3]
x2 = 0 | 1022.97
x2 = 0.001 | 1022.98
x2 = 0.102 | 1018.02
x2 = 0.202 | 1011.22
x2 = 0.305 | 1005.51
x2 = 0.385 | 999.83
x2 = 0.433 | 997.35

CCCC[N+]1(C)CCCC1.N#CN=C=[N-] [1-butyl-1-methylpyrrolidinium dicyanamide] + Cc1ccccc1
[1], 283.15 K
Settings | mass density [kg/m3]
x2 = 0 | 1022.97
x2 = 0.054 | 1020.33
x2 = 0.103 | 1018.02
x2 = 0.205 | 1012.43
x2 = 0.304 | 1006.23
x2 = 0.387 | 1000.63
x2 = 0.454 | 993.84
x2 = 0.528 | 986.94

CCCC[N+]1(C)CCCC1.O=S(=O)([N-]S(=O)(=O)C(F)(F)F)C(F)(F)F + c1ccccc1
[1], 283.15 K
Settings | mass density [kg/m3]
x2 = 0 | 1410.45
x2 = 0.106 | 1394.11
x2 = 0.309 | 1355.03
x2 = 0.505 | 1296.91
x2 = 0.714 | 1203.57
x2 = 0.813 | 1133.23

CCCC[N+](C)(CCCC)CCCC.O=S(=O)([N-]S(=O)(=O)C(F)(F)F)C(F)(F)F [tributylmethylammonium bis((trifluoromethyl)sulfonyl)imide] + c1ccccc1
[1], 343.15 K
Settings | mass density [kg/m3]
x2 = 0 | 1224.15
x2 = 0.048 | 1220.37
x2 = 0.097 | 1216.25
x2 = 0.198 | 1204.31
x2 = 0.294 | 1188.64
x2 = 0.393 | 1168.17
x2 = 0.506 | 1139.35
x2 = 0.596 | 1112.34
x2 = 0.701 | 1076.48
x2 = 0.738 | 1062.44
x2 = 0.774 | 1048.36
x2 = 0.801 | 1037.22
x2 = 0.823 | 1028.14
x2 = 0.85 | 1016.43
x2 = 0.865 | 1010.24

CCCC[N+]1(C)CCCC1.O=S(=O)([N-]S(=O)(=O)C(F)(F)F)C(F)(F)F + CCc1ccccc1
[1], 283.15 K
Settings | mass density [kg/m3]
x2 = 0 | 1410.45
x2 = 0.312 | 1332.47
x2 = 0.417 | 1296.15
x2 = 0.489 | 1268.45
x2 = 0.636 | 1201.58

CCCC[N+](C)(CCCC)CCCC.O=S(=O)([N-]S(=O)(=O)C(F)(F)F)C(F)(F)F [tributylmethylammonium bis((trifluoromethyl)sulfonyl)imide] + Cc1ccccc1
[1], 343.15 K
Settings | mass density [kg/m3]
x2 = 0 | 1224.15
x2 = 0.055 | 1218.2
x2 = 0.104 | 1212.25
x2 = 0.199 | 1200.37
x2 = 0.303 | 1184.47
x2 = 0.411 | 1163.41
x2 = 0.586 | 1117.48
x2 = 0.799 | 1036.86
x2 = 0.84 | 1016.08

CCCC[N+](C)(CCCC)CCCC.O=S(=O)([N-]S(=O)(=O)C(F)(F)F)C(F)(F)F [tributylmethylammonium bis((trifluoromethyl)sulfonyl)imide] + Cc1ccc(C)cc1
[1], 343.15 K
Settings | mass density [kg/m3]
x2 = 0 | 1224.15
x2 = 0.106 | 1209.82
x2 = 0.257 | 1187.07
x2 = 0.37 | 1163.42
x2 = 0.459 | 1143.06
x2 = 0.552 | 1114.23
x2 = 0.7 | 1057.46

CCCC[N+]1(C)CCCC1.O=S(=O)([N-]S(=O)(=O)C(F)(F)F)C(F)(F)F + Cc1ccc(C)cc1
[1], 283.15 K
Settings | mass density [kg/m3]
x2 = 0 | 1407.6
x2 = 0.207 | 1361.17
x2 = 0.357 | 1315.5
x2 = 0.507 | 1254.4
x2 = 0.617 | 1193.73

CCCC[N+](C)(CCCC)CCCC.O=S(=O)([N-]S(=O)(=O)C(F)(F)F)C(F)(F)F [tributylmethylammonium bis((trifluoromethyl)sulfonyl)imide] + Cc1cccc(C)c1
[1], 343.15 K
Settings | mass density [kg/m3]
x2 = 0 | 1224.18
x2 = 0.148 | 1203.79
x2 = 0.262 | 1185.69
x2 = 0.363 | 1165.61
x2 = 0.498 | 1130.77
x2 = 0.605 | 1095.81
x2 = 0.708 | 1059.94
